These compounds were tested against T1, recombinant human GST-Syk (Homo sapiens, UniProt P43405) (assay: Homogeneous Time-Resolved Fluorescence (HTRF) assay for the recombinant human Syk enzyme). Details: recombinant human GST-Syk 5 pM, ATP 25 μM, 10-dose titration 10 μM to 0.508 nM; read-out: rhSYK Activity IC50.
T1 construct: purchased Carna Biosciences 08-176
Type: biochemical
How it was run: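 GST-hSyk fusion protein phosphorylated a peptide for 45 min at room temperature. The reaction was quenched with 2 nM Eu-anti-phosphotyrosine antibody and 70 nM SA-APC in 15 mM Tris pH 7.5, 40 mM EDTA, 0.01% Tween 20. The HTRF signal was read after 30 min.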

Structure (SMILES) | IC50
Cc1cc(Nc2cc(C(F)(F)F)ccn2)nc(-c2cn(C(C)C(=O)NCCc3ccc(Oc4ccccc4)cc3)nn2)c1 (centres unmarked) [Example 1.46, 2-[4-(4-methyl-6-{[4-(trifluoromethyl)pyridin-2-yl]amino}pyridin-2-yl)-1H-1,2,3-triazol-1-yl]-N-[2-(4-phenoxyphenyl)ethyl]propanamide] | 1.4 µM
Cc1cc(Nc2nccc(C(F)(F)F)n2)cc(-n2cc(C3(O)CCC(C(N)=O)C(C)(C)C3)nn2)c1 (centres unmarked) [Example 1.58, 4-hydroxy-2,2-dimethyl-4-[1-(3-methyl-5-{[4-(trifluoromethyl)pyrimidin-2-yl]amino}phenyl)-1H-1,2,3-triazol-4-yl]cyclohexanecarboxamide] | 0.0297 µM
Cc1cc(Nc2cc(C(C)C)ccn2)nc(-c2cn(C(C)c3ccc(C(=O)O)cc3)nn2)c1 (centres unmarked) [Example 2.13, 4-{1-[4-(4-methyl-6-{[4-(1-methylethyl)pyridin-2-yl]amino}pyridin-2-yl)-1H-1,2,3-triazol-1-yl]ethyl}benzoic acid] | 0.0084 µM
Cc1cc(Nc2cc(C(F)(F)F)ccn2)nc(-c2cn(CC(O)C(=O)O)nn2)c1 (centres unmarked) [Example 14, 2-Hydroxy-3-(4-(4-methyl-6-((4-(trifluoromethyl)pyridin-2-yl)amino)pyridin-2-yl)-1H-1,2,3-triazol-1-yl)propanoic acid] | 0.0449 µM
COC(=O)[C@@H]1CCCN1C(=O)[C@H](C)n1cc(-c2cc(C)cc(Nc3cc(C(F)(F)F)ccn3)n2)nn1 [Example 1.56, methyl 1-{(2S)-2-[4-(4-methyl-6-{[4-(trifluoromethyl)pyridin-2-yl]amino}pyridin-2-yl)-1H-1,2,3-triazol-1-yl]propanoyl}prolinate] | 0.423 µM
Cc1cc(Nc2cc(C(F)(F)F)ccn2)nc(-c2cn(C(C)C(=O)NCc3cc(-c4ccco4)on3)nn2)c1 (centres unmarked) [Example 1.37, N-[(5-furan-2-ylisoxazol-3-yl)methyl]-2-[4-(4-methyl-6-{[4-(trifluoromethyl)pyridin-2-yl]amino}pyridin-2-yl)-1H-1,2,3-triazol-1-yl]propanamide] | 0.0339 µM
Cc1cc(Nc2nccc(C(F)(F)F)n2)cc(-c2cn(CC(O)C(=O)O)nn2)c1 (racemic) [Example 5.61, 2-hydroxy-3-[4-(3-methyl-5-{[4-(trifluoromethyl)pyrimidin-2-yl]amino}phenyl)-1H-1,2,3-triazol-1-yl]propanoic acid] | 0.0294 µM
Cc1cc(Nc2cc(C3CC3)ccn2)nc(-c2cn(C(C)c3ccc(C(=O)O)cc3)nn2)c1 (centres unmarked) [Example 2.11, 4-[1-(4-{6-[(4-cyclopropylpyridin-2-yl)amino]-4-methylpyridin-2-yl}-1H-1,2,3-triazol-1-yl)ethyl]benzoic acid] | 0.0064 µM
Cc1cc(Nc2cc(C(F)(F)F)ccn2)nc(-c2cn(C(C)C(=O)NCc3c(-c4ccccc4)noc3C)nn2)c1 (centres unmarked) [Example 1.47, N-[(5-methyl-3-phenylisoxazol-4-yl)methyl]-2-[4-(4-methyl-6-{[4-(trifluoromethyl)pyridin-2-yl]amino}pyridin-2-yl)-1H-1,2,3-triazol-1-yl]propanamide] | 0.345 µM
Cc1cc(Nc2cc(C(F)(F)F)ccn2)nc(-c2cn(C[C@H]3CNC(=O)O3)nn2)c1 [Example 5.102, (5R)-5-{[4-(4-methyl-6-{[4-(trifluoromethyl)pyridin-2-yl]amino}pyridin-2-yl)-1H-1,2,3-triazol-1-yl]methyl}-1,3-oxazolidin-2-one] | 0.0011 µM
C=C(C)Cn1cc(-c2cc(C)cc(Nc3cc(C(F)(F)F)ccn3)n2)nn1 [Example 5.40, 4-methyl-6-[1-(2-methylprop-2-en-1-yl)-1H-1,2,3-triazol-4-yl]-N-[4-(trifluoromethyl)pyridin-2-yl]pyridin-2-amine] | 0.0289 µM
Cc1ccnc(Nc2cc(C)cc(-c3cn(C[C@H](O)CC#N)nn3)n2)c1 [Example 5.14, (3R)-3-hydroxy-4-(4-{4-methyl-6-[(4-methylpyridin-2-yl)amino]pyridin-2-yl}-1H-1,2,3-triazol-1-yl)butanenitrile] | 0.0234 µM
Cc1cc(Nc2cc(C(F)(F)F)ccn2)nc(-c2cn(CC3(O)CCC3)nn2)c1 [Example 4.27, 1-{[4-(4-methyl-6-{[4-(trifluoromethyl)pyridin-2-yl]amino}pyridin-2-yl)-1H-1,2,3-triazol-1-yl]methyl}cyclobutanol] | 0.002 µM
COC(=O)C(C)CCn1cc(-c2cc(C)cc(Nc3cc(C(F)(F)F)ccn3)n2)nn1 (racemic) [Example 5.85, methyl 2-methyl-4-[4-(4-methyl-6-{[4-(trifluoromethyl)pyridin-2-yl]amino}pyridin-2-yl)-1H-1,2,3-triazol-1-yl]butanoate] | 0.08 µM
Cc1cc(Nc2cc(C(F)(F)F)ccn2)nc(-c2cn(CC3(O)CCOC3)nn2)c1 (single isomer, unassigned) [Example 5.11, 3-{[4-(4-methyl-6-{[4-(trifluoromethyl)pyridin-2-yl]amino}pyridin-2-yl)-1H-1,2,3-triazol-1-yl]methyl}tetrahydrofuran-3-ol] | 0.0218 µM

Results, then the compound that gave them:

IC50 | Structure (SMILES)
0.0197 µM | Cc1cc(Nc2nccc(C(F)F)n2)cc(-c2cn(C3CCCC(C)(O)C3O)nn2)c1 (single isomer, unassigned) [Example 29.1, 3-(4-(3-((4-(Difluoromethyl)pyrimidin-2-yl)amino)-5-methylphenyl)-1H-1,2,3-triazol-1-yl)-1-methylcyclohexane-1,2-diol]
0.0143 µM | Cc1cc(Nc2ncc(F)c(C(F)F)n2)cc(-c2cn(C3CCCCC3O)nn2)c1 (single isomer, unassigned) [Example 7.29, 2-[4-(3-{[4-(difluoromethyl)-5-fluoropyrimidin-2-yl]amino}-5-methylphenyl)-1H-1,2,3-triazol-1-yl]cyclohexanol]
0.0162 µM | Cc1cc(Nc2nccc(C(F)F)n2)cc(-c2cn(C3CCCCC3(C)O)nn2)c1 (single isomer, unassigned) [Example 7.19, 2-[4-(3-{[4-(difluoromethyl)pyrimidin-2-yl]amino}-5-methylphenyl)-1H-1,2,3-triazol-1-yl]-1-methylcyclohexanol]
0.0033 µM | Cc1cc(Nc2cc(C(F)(F)F)ccn2)nc(-c2cn(C3CCCC(O)C3O)nn2)c1 (centres unmarked) [Example 10.11, 3-[4-(4-methyl-6-{[4-(trifluoromethyl)pyridin-2-yl]amino}pyridin-2-yl)-1H-1,2,3-triazol-1-yl]cyclohexane-1,2-diol]
0.0135 µM | Cc1cc(Nc2cc(C(F)F)ccn2)nc(-c2cn(CC(C)(O)C(C)(C)O)nn2)c1 (centres unmarked) [Example 21.9, 1-[4-(6-{[4-(difluoromethyl)pyridin-2-yl]amino}-4-methylpyridin-2-yl)-1H-1,2,3-triazol-1-yl]-2,3-dimethylbutane-2,3-diol]
0.0796 µM | Cc1cc(Nc2nccc(C(F)(F)F)n2)cc(-n2cc(CCC(=O)O)nn2)c1 [Example 15.14, 3-[1-(3-methyl-5-{[4-(trifluoromethyl)pyrimidin-2-yl]amino}phenyl)-1H-1,2,3-triazol-4-yl]propanoic acid]
0.0065 µM | Cc1cc(Nc2nccc(C(F)(F)F)n2)cc(-n2cc(C3(O)CCC(C(=O)O)C(C)(C)C3)nn2)c1 (centres unmarked) [Example 15.1, 4-hydroxy-2,2-dimethyl-4-[1-(3-methyl-5-{[4-(trifluoromethyl)pyrimidin-2-yl]amino}phenyl)-1H-1,2,3-triazol-4-yl]cyclohexanecarboxylic acid]
0.0012 µM | Cc1cc(Nc2cc(C(F)F)ccn2)nc(-c2cn(C(C)C(C)(O)CO)nn2)c1 (single isomer, unassigned) [Example 30.8, 3-[4-(6-{[4-(difluoromethyl)pyridin-2-yl]amino}-4-methylpyridin-2-yl)-1H-1,2,3-triazol-1-yl]-2-methylbutane-1,2-diol]
0.0081 µM | Cc1cc(Nc2nccc(C(F)(F)F)n2)cc(-n2cc([C@@]3(O)CC[C@H](C(=O)O)C(C)(C)C3)nn2)c1 [Example 15.9, (1S,4R)-4-hydroxy-2,2-dimethyl-4-[1-(3-methyl-5-{[4-(trifluoromethyl)pyrimidin-2-yl]amino}phenyl)-1H-1,2,3-triazol-4-yl]cyclohexanecarboxylic acid]
0.0123 µM | Cc1cc(Nc2cc(C(F)F)ccn2)nc(-c2cn(CC3CNC(=O)C3)nn2)c1 (single isomer, unassigned) [Example 24.1, 4-((4-(6-((4-(difluoromethyl)pyridin-2-yl)amino)-4-methylpyridin-2-yl)-1H-1,2,3-triazol-1-yl)methyl)pyrrolidin-2-one]
0.0014 µM | Cc1cc(Nc2cc(C(F)F)ccn2)nc(-c2cn(C(C)C(C)(O)CO)nn2)c1 (single isomer, unassigned) [Example 30.7, 3-[4-(6-{[4-(difluoromethyl)pyridin-2-yl]amino}-4-methylpyridin-2-yl)-1H-1,2,3-triazol-1-yl]-2-methylbutane-1,2-diol]
0.0776 µM | Cc1cc(Nc2nccc(C)n2)cc(-c2cn(C3CCCCC3(C)O)nn2)c1 (single isomer, unassigned) [Example 7.28, 1-methyl-2-(4-{3-methyl-5-[(4-methylpyrimidin-2-yl)amino]phenyl}-1H-1,2,3-triazol-1-yl)cyclohexanol]
0.018 µM | Cc1cc(Nc2cc(C(F)F)ccn2)nc(-c2cn(CC3OC(=O)NC3C)nn2)c1 (single isomer, unassigned) [Example 7.44, 5-{[4-(6-{[4-(difluoromethyl)pyridin-2-yl]amino}-4-methylpyridin-2-yl)-1H-1,2,3-triazol-1-yl]methyl}-4-methyl-1,3-oxazolidin-2-one]

Same assay, conditions: rhSYK Activity IC50, recombinant human GST-Syk 5 pM, ATP 25 μM, 10-dose titration 10 μM to 0.508 nM

IC50 | Structure (SMILES)
0.0768 µM | Cc1cc(Nc2nccc(C(F)(F)F)n2)cc(-c2cn(CCNC(N)=O)nn2)c1 [Example 5.56, 1-{2-[4-(3-methyl-5-{[4-(trifluoromethyl)pyrimidin-2-yl]amino}phenyl)-1H-1,2,3-triazol-1-yl]ethyl}urea]
